Experimental data taken from the SangsterLogP compilation.

Experiment: method code SF-AS, from Bernabe, T.; Forni, F.; Bellei, S.; Cameroni, R. (1980). Partition coefficients of a series of substituted benzoic acids. Atti Soc. Nat. Mat Modena, 111(1)63-72.
Settings: pH 1.0

Compound | logD
Cc1cccc(C(=O)O)c1O | 2.86
O=C(O)c1ccc(Cl)cc1[N+](=O)[O-] | 2.08
O=C(O)c1cc([N+](=O)[O-])c(Cl)c([N+](=O)[O-])c1 | 2.5
O=C(O)c1cc([N+](=O)[O-])cc([N+](=O)[O-])c1O | 1.71
COc1ccc(C(=O)O)cc1OC | 1.61
O=C(O)c1cc(Cl)ccc1[N+](=O)[O-] | 2.13

More lines, now with the values ahead:

logD | Compound
1.82 | Nc1c(Cl)cc(Cl)cc1C(=O)O
2.41 | O=C(O)c1ccc(O)c(Cl)c1
1.94 | COc1cccc(C(=O)O)c1O
1.98 | O=C(O)c1ccc([N+](=O)[O-])c(O)c1
1.91 | Nc1cc([N+](=O)[O-])ccc1C(=O)O
2.63 | O=C(O)c1cc(I)ccc1O
2.19 | COc1cc(OC)cc(C(=O)O)c1
1.85 | O=C(O)c1ccc(O)c([N+](=O)[O-])c1
